From DBAASP
In brackets after ≈: the same amount, converted by molar mass.

Tests used:
Test in all cases: ≥ marks a high value that may be exact or a test limit, other limits are often not marked, values filed in µg/mL are converted to µM
[1] = tested on: Staphylococcus epidermidis
Escherichia coli UTI89 = tested on: Escherichia coli UTI89
[2] = tested on: Escherichia coli K12 MG1655
[3] = tested on: Salmonella enterica subsp. enterica serovar Typhimurium ATCC 14028
[4] = tested on: Escherichia coli BW25113 ΔsbmA
[5] = tested on: Klebsiella pneumoniae ATCC 700603
[6] = tested on: Pseudomonas aeruginosa ATCC 27853
Escherichia coli BW25113 = tested on: Escherichia coli BW25113
[7] = tested on: Escherichia coli ATCC 25922
[8] = tested on: Acinetobacter baumannii ATCC 19606
[9] = tested on: Staphylococcus aureus ATCC 25923
[10] = tested on: Acinetobacter baumannii ATCC 15308
Streptococcus pneumoniae = tested on: Streptococcus pneumoniae
Citrobacter sp. = tested on: Citrobacter sp.
[11] = tested on: Pseudomonas aeruginosa ATCC 15442
Enterobacter cloacae = tested on: Enterobacter cloacae
Staphylococcus aureus = tested on: Staphylococcus aureus
Klebsiella pneumoniae = tested on: Klebsiella pneumoniae
[12] = tested on: Staphylococcus aureus LAC
Pseudomonas syringae = tested on: Pseudomonas syringae
[13] = tested on: Streptococcus pyogenes GAS M1T1
[14] = tested on: Xanthomonas axonopodis pv. phaseoli ATCC 9563
Escherichia coli BL21 = tested on: Escherichia coli BL21
Escherichia coli = tested on: Escherichia coli
[15] = tested on: Enterococcus faecalis ATCC 19433

## CC[C@H](C)[C@H](NC(=O)[C@H](CCCCN)NC(=O)[C@H](CCC(N)=O)NC(=O)[C@H](Cc1c[nH]c2ccccc12)NC(=O)[C@@H](NC(=O)[C@H](CCCCN)NC(=O)[C@@H](N)CCCCN)[C@@H](C)CC)C(=O)N[C@@H](CCCN=C(N)N)C(=O)N[C@@H](CC(N)=O)C(=O)N[C@@H](Cc1ccccc1)C(=O)N[C@@H](Cc1ccccc1)C(=O)N[C@@H](CCC(N)=O)C(=O)N[C@@H](CCCCN)C(=O)N[C@@H](CC(C)C)C(=O)O [KKIWQKIRNFFQKL]
[1]
  MIC: ≥ 50 µM
Escherichia coli UTI89
  MIC: 12.5 µM (≈ 23.5 µg/mL)
[2]
  MIC: 12.5 µM (≈ 23.5 µg/mL)
[3]
  MIC: > 50 µM

## CC[C@H](C)[C@H](NC(=O)[C@@H]1CCCN1C(=O)[C@@H]1CCCN1C(=O)[C@H](CCCN=C(N)N)NC(=O)[C@H](Cc1ccccc1)NC(=O)[C@@H]1CCCN1C(=O)[C@@H]1CCCN1C(=O)[C@H](Cc1ccc(O)cc1)NC(=O)[C@H](Cc1ccccc1)NC(=O)[C@@H]1CCCN1C(=O)[C@@H]1CCCN1C(=O)[C@H](CCCN=C(N)N)NC(=O)[C@@H](NC(=O)[C@@H]1CCCN1C(=O)[C@@H]1CCCN1C(=O)[C@H](CCCN=C(N)N)NC(=O)[C@H](CCCN=C(N)N)NC(=O)[C@@H](NC(=O)[C@@H]1CCCN1C(=O)[C@@H]1CCCN1C(=O)[C@@H](N)CCCN=C(N)N)[C@@H](C)CC)[C@@H](C)CC)C(=O)N[C@@H](CCCN=C(N)N)C(=O)N1CCC[C@H]1C(=O)O [RPPIRRPPIRPPFYPPFRPPIRP]
[4]
  MIC: ≥ 64 µM
[5]
  MIC: > 64 µM
[6]
  MIC: > 64 µM
Escherichia coli BW25113
  MIC: 4 µM (≈ 11.3 µg/mL)
[3]
  MIC: > 64 µM
[7]
  MIC: 8 µM (≈ 22.6 µg/mL)
[8]
  MIC: 8 µM (≈ 22.6 µg/mL)
[9]
  MIC: > 64 µM

## CC[C@H](C)[C@H](NC(=O)[C@H](CCSC)NC(=O)[C@H](C)NC(=O)[C@@H]1CCCN1C(=O)[C@@H](NC(=O)[C@H](CCCN=C(N)N)NC(=O)[C@H](CCCCN)NC(=O)[C@@H](NC(=O)[C@H](CC(C)C)NC(=O)CNC(=O)CNC(=O)[C@H](CC(C)C)NC(=O)[C@@H](N)Cc1ccccc1)[C@@H](C)CC)C(C)C)C(=O)N[C@H]1CSSC[C@@H](C(=O)O)NC(=O)[C@H](CCCCN)NC(=O)[C@H](CCCCN)NC(=O)[C@H](CCCN=C(N)N)NC(=O)[C@H](C(C)C)NC(=O)[C@H](C)NC1=O [FLGGLIKRVPAMICAVRKKC]
[10]
  MIC: ≥ 113 µM
Streptococcus pneumoniae
  MIC: ≥ 113 µM
Citrobacter sp.
  MIC: ≥ 113 µM
[11]
  MIC: ≥ 113 µM
Enterobacter cloacae
  MIC: ≥ 113 µM
Staphylococcus aureus
  MIC: > 113 µM
[7]
  MIC: > 113 µM
Klebsiella pneumoniae
  MIC: > 113 µM
[9]
  MIC: > 113 µM

## NC(N)=NCCC[C@H](NC(=O)[C@H](CCCN=C(N)N)NC(=O)[C@H](CCCN=C(N)N)NC(=O)[C@H](CCCN=C(N)N)NC(=O)[C@H](Cc1ccc(O)cc1)NC(=O)[C@H](Cc1ccc(O)cc1)NC(=O)[C@H](Cc1ccc(O)cc1)NC(=O)[C@@H](N)Cc1ccc(O)cc1)C(=O)O [YYYYRRRR]
[12]
  MIC: ≥ 98.8 µM
[7]
  MIC: > 98.8 µM

## CC[C@H](C)[C@H](NC(=O)[C@H](CCC(=O)O)NC(=O)[C@H](CC(N)=O)NC(=O)[C@H](CCCCN)NC(=O)[C@H](CC(C)C)NC(=O)[C@H](Cc1ccc(O)cc1)NC(=O)[C@H](CCC(N)=O)NC(=O)[C@H](CCCN=C(N)N)NC(=O)[C@@H](NC(=O)[C@@H](NC(=O)[C@H](CCCCN)NC(=O)[C@H](CCCCN)NC(=O)[C@H](Cc1c[nH]c2ccccc12)NC(=O)[C@H](C)N)[C@@H](C)O)[C@@H](C)CC)C(=O)N[C@@H](CCCCN)C(=O)N[C@@H](CCCCN)C(=O)N[C@@H](CCCCN)C(=O)N[C@@H](Cc1c[nH]c2ccccc12)C(=O)N[C@@H](CCCN=C(N)N)C(=O)N[C@@H](CCCCN)C(=O)N[C@@H](C)C(=O)N[C@H](C(=O)N[C@H](C(=O)N[C@@H](C)C(=O)N[C@@H](Cc1c[nH]c2ccccc12)C(=O)O)[C@@H](C)CC)C(C)C [AWKKTIRQYLKNEIKKKWRKAVIAW]
Pseudomonas syringae
  MIC: 8 µM (≈ 25.5 µg/mL)
[13]
  MIC: 8 µM (≈ 25.5 µg/mL)
[14]
  MIC: 1 µM (≈ 3.19 µg/mL)
Escherichia coli BL21
  MIC: 2 µM (≈ 6.37 µg/mL)

## CC[C@H](C)[C@H](N)C(=O)N[C@H](C(=O)N[C@H](C(=O)N[C@H](C(=O)N[C@@H](CCCN=C(N)N)C(=O)N[C@@H](CCCN=C(N)N)C(=O)N[C@@H](CCCN=C(N)N)C(=O)N[C@@H](CCCN=C(N)N)C(=O)O)[C@@H](C)CC)[C@@H](C)CC)[C@@H](C)CC [IIIIRRRR]
[12]
  MIC: ≥ 117 µM
[7]
  MIC: > 117 µM

## CC[C@H](C)[C@H](NC(=O)[C@@H]1CCCN1C(=O)[C@H](CCCN=C(N)N)NC(=O)[C@H](CCCN=C(N)N)NC(=O)[C@H](Cc1c[nH]c2ccccc12)NC(=O)[C@@H](N)CCCN=C(N)N)C(=O)N[C@@H](CCCN=C(N)N)C(=O)N[C@@H](CCCN=C(N)N)C(=O)N[C@@H](CCCN=C(N)N)C(=O)N1CCC[C@H]1C(=O)N[C@H](C(=O)N[C@@H](CCCN=C(N)N)C(=O)N1CCC[C@H]1C(=O)N1CCC[C@H]1C(=O)N[C@@H](Cc1ccccc1)C(=O)N[C@@H](Cc1c[nH]c2ccccc12)C(=O)N[C@@H](CCCN=C(N)N)C(=O)O)[C@@H](C)CC [RWRRPIRRRPIRPPFWR]
[4]
  MIC: 4 µM (≈ 9.61 µg/mL)
[5]
  MIC: 4 µM (≈ 9.61 µg/mL)
[6]
  MIC: 32 µM (≈ 76.9 µg/mL)
Escherichia coli
  MIC: 1.41 µM (≈ 3.4 µg/mL)
Escherichia coli BW25113
  MIC: 4 µM (≈ 9.61 µg/mL)
[8]
  MIC: 8 µM (≈ 19.2 µg/mL)
[9]
  MIC: 64 µM (≈ 154 µg/mL)

## CC[C@H](C)[C@H](NC(=O)[C@H](CCCCN)NC(=O)[C@H](CCC(N)=O)NC(=O)[C@H](Cc1c[nH]c2ccccc12)NC(=O)[C@@H](NC(=O)[C@H](CCCCN)NC(=O)[C@@H](N)CCCCN)[C@@H](C)CC)C(=O)N[C@@H](CCCCN)C(=O)N[C@@H](CC(N)=O)C(=O)N[C@@H](Cc1ccccc1)C(=O)N[C@@H](Cc1ccccc1)C(=O)N[C@@H](CCCN=C(N)N)C(=O)N[C@@H](CCCCN)C(=O)N[C@@H](CC(C)C)C(=O)O [KKIWQKIKNFFRKL]
[1]
  MIC: 12.5 µM (≈ 23.5 µg/mL)
Escherichia coli UTI89
  MIC: 25 µM (≈ 46.9 µg/mL)
[2]
  MIC: ≥ 50 µM
[3]
  MIC: > 50 µM

## CC[C@@H](C)[C@@H](NC(=O)[C@@H](CCCN=C(N)N)NC(=O)[C@@H](CCCN=C(N)N)NC(=O)[C@@H](Cc1c[nH]c2ccccc12)NC(=O)[C@@H](CCC(N)=O)NC(=O)[C@H](N)C(C)C)C(=O)N[C@H](CCCN=C(N)N)C(=O)N[C@@H](C(=O)N[C@H](Cc1c[nH]c2ccccc12)C(=O)N[C@@H](C(=O)N[C@@H](C(=O)N[C@H](CCCN=C(N)N)C(=O)O)[C@H](C)CC)C(C)C)C(C)C [VQWRRIRVWVIR]
[15]
  MIC: ≥ 154 µM

## CC(C)C[C@H](NC(=O)[C@@H](N)CCCN=C(N)N)C(=O)N1CCC[C@H]1C(=O)N[C@@H](Cc1c[nH]c2ccccc12)C(=O)N[C@@H](CCCN=C(N)N)C(=O)N[C@@H](Cc1c[nH]c2ccccc12)C(=O)N1CCC[C@H]1C(=O)N[C@@H](CCCN=C(N)N)C(=O)N[C@@H](CCCN=C(N)N)C(=O)N1CCC[C@H]1C(=O)N[C@@H](Cc1c[nH]c2ccccc12)C(=O)N[C@@H](CCCN=C(N)N)C(=O)N[C@@H](CCCN=C(N)N)C(N)=O [RLPWRWPRRPWRR]
[10]
  MIC: ≥ 130 µM
Streptococcus pneumoniae
  MIC: ≥ 130 µM
Citrobacter sp.
  MIC: ≥ 130 µM
[11]
  MIC: ≥ 65.2 µM
Enterobacter cloacae
  MIC: ≥ 130 µM
Staphylococcus aureus
  MIC: 130 µM (≈ 250 µg/mL)
[7]
  MIC: 130 µM (≈ 250 µg/mL)
Klebsiella pneumoniae
  MIC: > 130 µM
[9]
  MIC: 65.2 µM (≈ 125 µg/mL)
